We go through 9 cell lines from the supplement of paper PMC10307832.

Holding throughout (assay): relative viability (nuclei count vs DMSO), 5 days (fraction); higher = more cells survive
Compound in the assay “Bortezomib + Trametinib”: CC(C)C[C@H](NC(=O)[C@H](Cc1ccccc1)NC(=O)c1cnccn1)B(O)O [Bortezomib] + CC(=O)Nc1cccc(-n2c(=O)n(C3CC3)c(=O)c3c(Nc4ccc(I)cc4F)n(C)c(=O)c(C)c32)c1 [Trametinib] (partner 0.02 µM)
A digest of the protocol: (§1)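 Relative viability equals treated-well nuclei counts divided by vehicle-well nuclei counts. Counts came from 4× images of lung cancer cell lines grown in 1536-well plates for 5 days after pin-tool dosing on the day after seeding. Dosing used one drug alone or a fixed anchor-drug dose plus five library-drug doses (not always all listed) in √10 steps, and values are medians of duplicate plates.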

Compound in the assay “Bortezomib + Phenformin”: CC(C)C[C@H](NC(=O)[C@H](Cc1ccccc1)NC(=O)c1cnccn1)B(O)O [Bortezomib] + N=C(N)NC(=N)NCCc1ccccc1 [Phenformin] (partner 250 µM)
A digest of the protocol: as §1

Compound in assay [1]: CC1=CC(=NN1)NC2=CC(=NC(=N2)/C=C/C3=CC=CC=C3)N4CCN(CC4)C + Cc1cc(Nc2cc(N3CCN(C)CC3)nc(Sc3ccc(NC(=O)C4CC4)cc3)n2)n[nH]1 [Tozasertib] (partner 0.1 µM)
A digest of the protocol:
as §1

Compound in assay [2]: CC1=CC(=NN1)NC2=CC(=NC(=N2)/C=C/C3=CC=CC=C3)N4CCN(CC4)C + N=C(N)NC(=N)NCCc1ccccc1 [Phenformin] (partner 250 µM)
Summed up:
as §1

As to LU99A, the relative viability came to 0.546 with Bortezomib + Trametinib (first compound 0.0002 µM); 0.522 with Bortezomib + Trametinib (first compound 0.000632 µM); 0.567 with Bortezomib + Trametinib (first compound 0.002 µM); 0.517 in the assay with Bortezomib + Trametinib (first compound 0.006325 µM); 0.148 with Bortezomib + Trametinib (first compound 0.02 µM); 0.789 with Bortezomib + Phenformin (first compound 0.0002 µM). Also, the relative viability in the assay with Bortezomib + Phenformin (first compound 0.000632 µM) came to 0.782; with Bortezomib + Phenformin (first compound 0.002 µM) it was 0.898; with Bortezomib + Phenformin (first compound 0.006325 µM) it was 0.85; in the assay with Bortezomib + Phenformin (first compound 0.02 µM), 0.328; in assay [1] (first compound 0.08 µM) it was 0.325; in assay [1] (first compound 0.253 µM), 0.259. Further, the relative viability in assay [1] (first compound 0.8 µM) came out at 0.262; in assay [1] (first compound 2.53 µM), 0.175; in assay [1] (first compound 8 µM) it was 0.141; in assay [2] (first compound 0.08 µM), 0.748; in assay [2] (first compound 0.253 µM), 0.707; in assay [2] (first compound 0.8 µM), 0.716. For the same cell line, the relative viability in assay [2] (first compound 2.53 µM) stood at 0.411; in assay [2] (first compound 8 µM), 0.153.
With LXF-289, the relative viability is 0.699 with Bortezomib + Trametinib (first compound 0.0002 µM); 0.672 with Bortezomib + Trametinib (first compound 0.000632 µM); 0.768 with Bortezomib + Trametinib (first compound 0.002 µM); 0.113 with Bortezomib + Trametinib (first compound 0.006325 µM); 0.101 in the assay with Bortezomib + Trametinib (first compound 0.02 µM); 0.556 with Bortezomib + Phenformin (first compound 0.0002 µM). Besides, the relative viability was 0.507 in the assay with Bortezomib + Phenformin (first compound 0.000632 µM); 0.483 in the assay with Bortezomib + Phenformin (first compound 0.002 µM); 0.076 with Bortezomib + Phenformin (first compound 0.006325 µM); 0.0724 with Bortezomib + Phenformin (first compound 0.02 µM); 0.192 in assay [1] (first compound 0.08 µM); 0.142 in assay [1] (first compound 0.253 µM). The relative viability amounted to 0.191 in assay [1] (first compound 0.8 µM); 0.113 in assay [1] (first compound 2.53 µM); 0.0447 in assay [1] (first compound 8 µM); 0.478 in assay [2] (first compound 0.08 µM); 0.464 in assay [2] (first compound 0.253 µM); 0.496 in assay [2] (first compound 0.8 µM). The relative viability in assay [2] (first compound 2.53 µM) came out at 0.265; in assay [2] (first compound 8 µM) it was 0.114.
Turning to NCI-H23, the relative viability was 0.343 with Bortezomib + Trametinib (first compound 0.0002 µM); 0.286 with Bortezomib + Trametinib (first compound 0.002 µM); 0.193 in the assay with Bortezomib + Trametinib (first compound 0.006325 µM); 0.114 in the assay with Bortezomib + Trametinib (first compound 0.02 µM); 0.79 with Bortezomib + Phenformin (first compound 0.0002 µM); 0.652 with Bortezomib + Phenformin (first compound 0.000632 µM). Also, the relative viability with Bortezomib + Phenformin (first compound 0.002 µM) was determined as 0.785; with Bortezomib + Phenformin (first compound 0.006325 µM), 0.277; with Bortezomib + Phenformin (first compound 0.02 µM), 0.114; in assay [1] (first compound 0.08 µM) it was 0.389; in assay [1] (first compound 0.253 µM) it was 0.382; in assay [1] (first compound 0.8 µM), 0.239. Besides, the relative viability came out at 0.212 in assay [1] (first compound 2.53 µM); 0.141 in assay [1] (first compound 8 µM); 0.793 in assay [2] (first compound 0.08 µM); 0.887 in assay [2] (first compound 0.253 µM); 0.711 in assay [2] (first compound 0.8 µM); 0.247 in assay [2] (first compound 2.53 µM). Moreover, in assay [2] (first compound 8 µM), the relative viability amounted to 0.204.
Turning to NCI-H322M, the relative viability with Bortezomib + Trametinib (first compound 0.0002 µM) worked out at 0.547; with Bortezomib + Trametinib (first compound 0.000632 µM) it was 0.455; with Bortezomib + Trametinib (first compound 0.002 µM) it was 0.47; in the assay with Bortezomib + Trametinib (first compound 0.006325 µM), 0.486; with Bortezomib + Trametinib (first compound 0.02 µM) it was 0.411; with Bortezomib + Phenformin (first compound 0.0002 µM), 0.807. For the same cell line, the relative viability in the assay with Bortezomib + Phenformin (first compound 0.002 µM) stood at 0.748; with Bortezomib + Phenformin (first compound 0.006325 µM), 0.295; in the assay with Bortezomib + Phenformin (first compound 0.02 µM), 0.322; in assay [1] (first compound 0.08 µM) it was 0.509; in assay [1] (first compound 0.253 µM), 0.521; in assay [1] (first compound 0.8 µM), 0.506. Further, the relative viability in assay [1] (first compound 2.53 µM) is 0.3; in assay [1] (first compound 8 µM) it was 0.229; in assay [2] (first compound 0.08 µM) it was 0.759; in assay [2] (first compound 0.253 µM), 0.852; in assay [2] (first compound 0.8 µM) it was 0.688; in assay [2] (first compound 2.53 µM) it was 0.31. Besides, in assay [2] (first compound 8 µM), the relative viability came to 0.218.
NCI-H358: the relative viability in the assay with Bortezomib + Trametinib (first compound 0.0002 µM) turned out to be 0.12; in the assay with Bortezomib + Trametinib (first compound 0.000632 µM), 0.121; in the assay with Bortezomib + Trametinib (first compound 0.002 µM) it was 0.133; in the assay with Bortezomib + Trametinib (first compound 0.006325 µM), 0.094; with Bortezomib + Trametinib (first compound 0.02 µM), 0.0906; in the assay with Bortezomib + Phenformin (first compound 0.0002 µM), 0.316. Moreover, the relative viability with Bortezomib + Phenformin (first compound 0.000632 µM) was found to be 0.305; in the assay with Bortezomib + Phenformin (first compound 0.002 µM) it was 0.354; with Bortezomib + Phenformin (first compound 0.006325 µM) it was 0.0576; with Bortezomib + Phenformin (first compound 0.02 µM) it was 0.0696; in assay [1] (first compound 0.08 µM), 0.103; in assay [1] (first compound 0.253 µM) it was 0.103. Also, the relative viability worked out at 0.0892 in assay [1] (first compound 0.8 µM); 0.089 in assay [1] (first compound 2.53 µM); 0.0711 in assay [1] (first compound 8 µM); 0.272 in assay [2] (first compound 0.08 µM); 0.377 in assay [2] (first compound 0.253 µM); 0.229 in assay [2] (first compound 0.8 µM). For the same cell line, the relative viability in assay [2] (first compound 2.53 µM) stood at 0.0644; in assay [2] (first compound 8 µM), 0.0549.
Take NCI-H1563: the relative viability with Bortezomib + Phenformin (first compound 0.0002 µM) worked out at 0.742; in the assay with Bortezomib + Phenformin (first compound 0.000632 µM), 0.659; with Bortezomib + Phenformin (first compound 0.002 µM), 0.636; with Bortezomib + Phenformin (first compound 0.006325 µM), 0.518; with Bortezomib + Phenformin (first compound 0.02 µM), 0.465; in assay [2] (first compound 0.08 µM) it was 0.726. The relative viability was found to be 0.659 in assay [2] (first compound 0.253 µM), 0.664 in assay [2] (first compound 0.8 µM), 0.592 in assay [2] (first compound 2.53 µM) and 0.43 in assay [2] (first compound 8 µM).
Consider NCI-H1623, for which the relative viability with Bortezomib + Phenformin (first compound 0.0002 µM) is 0.538; with Bortezomib + Phenformin (first compound 0.000632 µM) it was 0.594; with Bortezomib + Phenformin (first compound 0.002 µM) it was 0.623; with Bortezomib + Phenformin (first compound 0.006325 µM) it was 0.577; in the assay with Bortezomib + Phenformin (first compound 0.02 µM), 0.307; in assay [1] (first compound 0.08 µM) it was 0.4. For the same cell line, the relative viability in assay [1] (first compound 0.253 µM) worked out at 0.441; in assay [1] (first compound 0.8 µM), 0.414; in assay [1] (first compound 2.53 µM), 0.397; in assay [1] (first compound 8 µM), 0.342; in assay [2] (first compound 0.08 µM), 0.6; in assay [2] (first compound 0.253 µM) it was 0.615. For the same cell line, the relative viability amounted to 0.583 in assay [2] (first compound 0.8 µM), 0.563 in assay [2] (first compound 2.53 µM) and 0.343 in assay [2] (first compound 8 µM).
Regarding NCI-H1648, the relative viability came out at 0.465 with Bortezomib + Trametinib (first compound 0.0002 µM); 0.594 with Bortezomib + Trametinib (first compound 0.000632 µM); 0.371 in the assay with Bortezomib + Trametinib (first compound 0.002 µM); 0.263 with Bortezomib + Trametinib (first compound 0.006325 µM); 0.389 in the assay with Bortezomib + Trametinib (first compound 0.02 µM); 0.42 in assay [1] (first compound 0.08 µM). Also, the relative viability in assay [1] (first compound 0.253 µM) is 0.543; in assay [1] (first compound 0.8 µM) it was 0.643; in assay [1] (first compound 2.53 µM) it was 0.46; in assay [1] (first compound 8 µM) it was 0.215.
NCI-H1792: the relative viability in the assay with Bortezomib + Trametinib (first compound 0.0002 µM) worked out at 0.506; in the assay with Bortezomib + Trametinib (first compound 0.000632 µM) it was 0.413; with Bortezomib + Trametinib (first compound 0.002 µM) it was 0.446; with Bortezomib + Trametinib (first compound 0.006325 µM) it was 0.292; in the assay with Bortezomib + Trametinib (first compound 0.02 µM), 0.0651; in the assay with Bortezomib + Phenformin (first compound 0.0002 µM), 0.534. Also, the relative viability turned out to be 0.173 with Bortezomib + Phenformin (first compound 0.002 µM); 0.0935 in the assay with Bortezomib + Phenformin (first compound 0.006325 µM); 0.0823 in the assay with Bortezomib + Phenformin (first compound 0.02 µM); 0.273 in assay [2] (first compound 0.08 µM); 0.267 in assay [2] (first compound 0.253 µM); 0.166 in assay [2] (first compound 0.8 µM). Further, the relative viability came out at 0.0557 in assay [2] (first compound 2.53 µM) and 0.0429 in assay [2] (first compound 8 µM).
